The results in this text go back to patent publication US20240287062A1, “NAPHTHYRIDONE COMPOUNDS FOR INHIBITION OF RAF KINASES AND/OR BCR-ABL TYROSINE KINASES” (Enliven Inc., priority 2021, published 2024).

One assay concerns the target ABL1 (H396P) (Homo sapiens (Human), UniProt P00519, H396P). The assay is described as follows: Radioactivity-based ABL kinase assay. The class given is biochemical. The settings on record: 100 μM 33P-ATP. How it is done:
(§1) The following kinase assay was based on Anastassiadis et al (2011) Nat Biotech, 29:1039-1045. Briefly, ABL kinase substrate (ABLtide: EAIYAAPFAKKK; Genscript) was freshly prepared in reaction buffer (20 mM HEPES pH 7.5, 10 mM MgCl2, 1 mM EGTA, 0.02% Brij-35, 0.02 mg/ml BSA, 0.1 mM Na3VO4, 2 mM DTT, and 1% DMSO) to a final substrate concentration of 20 μM. ABL wild type and ABL mutant kinases were added to the substrate solution and mixed to the final enzyme concentrations shown in Table 3 below.
(§2) Serial dilutions of compounds were prepared in 100% DMSO Compounds or DMSO only (vehicle control) were then added to the kinase reaction mixture and incubated for 20 minutes at room temperature. 100 μM ^33P-ATP (specific activity 10 μCi/μl) was then added to the kinase reaction mixture to initiate the kinase reaction. This mixture was incubated for 2 hours at room temperature. Radioactivity was then measured by radioisotope filter-binding. Kinase activity data were expressed as the percent remaining kinase activity in test samples compared to vehicle control reactions. IC50 values and curve fits were obtained using a nonlinear regression model with a sigmoidal dose response (Prism GraphPad Software).

The target of a further assay is ABL1 (V299L) (Homo sapiens (Human), UniProt P00519, V299L). The experiment in a line: Radioactivity-based ABL kinase assay. The class given is biochemical. The following applies: 100 μM 33P-ATP. As for the experimental part:
as §1, §2

The target in another assay is ABL1 (M351T) (Homo sapiens (Human), UniProt P00519, M351T). The experiment in a line: Radioactivity-based ABL kinase assay. The class given is biochemical. The following applies: 100 μM 33P-ATP. How it is done: as §1, §2
The target of the next assay is ABL1 (E255V) (Homo sapiens (Human), UniProt P00519, E255V). The assay is described as follows: Radioactivity-based ABL kinase assay. The following applies: 100 μM 33P-ATP. The class given is biochemical. As for the experimental part: as §1, §2
The next assay deals with ABL1 (T315I) (Homo sapiens (Human), UniProt P00519, T315I). The experiment in a line: Radioactivity-based ABL kinase assay. Format: biochemical. The following applies: 100 μM 33P-ATP. As for the experimental part:
as §1, §2

A further assay addresses ABL1 (Q252H) (Homo sapiens (Human), UniProt P00519, Q252H). The assay is described as follows: Radioactivity-based ABL kinase assay. Format: biochemical. The following applies: 100 μM 33P-ATP. How it is done: as §1, §2
For the next assay, the target named is ABL1 (E255K) (Homo sapiens (Human), UniProt P00519, E255K). The experiment in a line: Radioactivity-based ABL kinase assay. The following applies: 100 μM 33P-ATP. Format: biochemical. As for the experimental part:
as §1, §2

The next assay concerns the target ABL1 (F317L) (Homo sapiens (Human), UniProt P00519, F317L). The assay is described as follows: Radioactivity-based ABL kinase assay. Format: biochemical. The settings on record: 100 μM 33P-ATP. As for the experimental part: as §1, §2
For the next assay, the target named is ABL1 (Y253F) (Homo sapiens (Human), UniProt P00519, Y253F). The assay is described as follows: Radioactivity-based ABL kinase assay. Format: biochemical. The settings on record: 100 μM 33P-ATP. How it is done: as §1, §2
In another assay the target is ABL1 (Homo sapiens (Human), UniProt P00519). The experiment in a line: Radioactivity-based ABL kinase assay. The class given is biochemical. The following applies: 100 μM 33P-ATP. How it is done:
as §1, §2

A further assay deals with HepG2 (NRAS Q61L). The assay is described as follows: Cell viability assay (CellTiter Glo). Format: cell-based. The following applies: Homo sapiens, HepG2, 120 h, HepG2, 750 cells per well, read-out: BRAF Cytotoxicity (IC50, nM) HEPG2. How it is done:
Cell viability was measured in the following MAPK pathway mutant cancer cell lines: A375 (BRAF V600E), HepG2 (NRAS Q61L), SK-MEL-30 (NRAS Q61K), and OCI-AML-2 (MBNL1-CRAF fusion). Cell viability was also measured in K562 cells.
A375, HepG2, SK-MEL-30 and OCI-AML-2 cells were grown in the appropriate growth medium as described in Table B2 below, and harvested at 50-80% confluence. Cells were counted and seeded at their appropriate density (see Table B1) in a 384-well plate (Corning 3570). A375, HepG2 and SK-MEL-30 were allowed to adhere overnight prior to treatment and the OCI-AML-2 were treated immediately for the indicated drug treatment times (Table 6).
Table 6 provides the growth media, number of cells seeded per well and drug treatment times for the each cell line. K562 cells were grown as described in Example B1 above.
Compounds were dissolved in DMSO and serially diluted. Serially-diluted compound or a DMSO only control (high control, “HC”) was added to the plated cells in each well. Compounds were tested at concentrations of about 10 μM to 0.51 nM, using three-fold dilutions. The final proportion of DMSO never exceeded 0.1%.
Plates were placed in a 37° C., […] incubator for the indicated treatment times (Table B1). Plates were then removed from the incubator and equilibrated for 15 minutes at room temperature. 40 μl of CellTiter Glo reagent (Promega) was added to measure the relative level of metabolically active cells by quantifying intracellular ATP concentrations. Plates were incubated for 30 minutes at room temperature, and luminescence was measured. Percent viability was normalized to a vehicle control only using the following formula: 0 viability=100×(LumSample−LumLC)/(LumHC−LumLC). Graphical curves were fitted using a nonlinear regression model with a sigmoidal dose response.
A general note: Cellular ATP, detected with luciferase, serves as a proxy for viable cell number.

The next assay concerns the target c-KIT (Homo sapiens (Human), UniProt P10721). The assay is described as follows: Luminescence-based c-KIT kinase assay (Km ATP), ADP-Glo. The following applies: compound at 100 nM concentration. The class given is biochemical. How it is done:
Kinase activity of c-KIT was measured using the ADP-Glo system (Promega). Compounds were diluted in DMSO at 100 μM. 20 nL of compound or DMSO only (high control, HC) were added to a 384-well plate (OptiPlate-384, PerkinElmer) using an Echo550 liquid handler (Labcyte). 15 μL of kinase solution (10 mM MgCl2, 0.01% Brij-35, 2 mM DTT, 0.05% BSA, 1 mM EGTA, 50 mM HEPES pH 7.5, and 13.3 nM c-KIT [Carna Biosciences]) were added to each well of the 384-well plate containing the compounds. No enzyme control wells were included (low control, LC). The plate was incubated at room temperature for 30 minutes. 5 μL of a second solution containing 10 mM MgCl2, 0.01% Brij-35, 2 mM DTT, 0.05% BSA, 1 mM EGTA, 50 mM HEPES pH 7.5, 0.8 μg/ml Poly(Glu-Tyr) (Sigma, Cat No 97105-00-5), and 400 μM ATP were added to each well to start the kinase reaction. The plate was incubated for 90 minutes at room temperature. 20 μL of ADP-Glo reagent (Promega) were then added to each well and the plate was incubated for 40 minutes at room temperature. […] During this step, ADP was converted to ATP, a substrate for luciferase, to produce luminescence signal. Luminescence was measured on an Envision plate reader (Perkin Elmer). Luminescence signal positively correlates with kinase activity. The percent inhibition of kinase activity was calculated as follows: percent inhibition=100×(LumHC−LumSample)/(LumHC−LumLC). […]

One may read the IC50 as the concentration needed to halve the response being measured. In general, inhibition refers to how much of the control response was suppressed. The low end stands for little suppression, the high end for strong suppression.

Chain of c-KIT (P10721 26-976): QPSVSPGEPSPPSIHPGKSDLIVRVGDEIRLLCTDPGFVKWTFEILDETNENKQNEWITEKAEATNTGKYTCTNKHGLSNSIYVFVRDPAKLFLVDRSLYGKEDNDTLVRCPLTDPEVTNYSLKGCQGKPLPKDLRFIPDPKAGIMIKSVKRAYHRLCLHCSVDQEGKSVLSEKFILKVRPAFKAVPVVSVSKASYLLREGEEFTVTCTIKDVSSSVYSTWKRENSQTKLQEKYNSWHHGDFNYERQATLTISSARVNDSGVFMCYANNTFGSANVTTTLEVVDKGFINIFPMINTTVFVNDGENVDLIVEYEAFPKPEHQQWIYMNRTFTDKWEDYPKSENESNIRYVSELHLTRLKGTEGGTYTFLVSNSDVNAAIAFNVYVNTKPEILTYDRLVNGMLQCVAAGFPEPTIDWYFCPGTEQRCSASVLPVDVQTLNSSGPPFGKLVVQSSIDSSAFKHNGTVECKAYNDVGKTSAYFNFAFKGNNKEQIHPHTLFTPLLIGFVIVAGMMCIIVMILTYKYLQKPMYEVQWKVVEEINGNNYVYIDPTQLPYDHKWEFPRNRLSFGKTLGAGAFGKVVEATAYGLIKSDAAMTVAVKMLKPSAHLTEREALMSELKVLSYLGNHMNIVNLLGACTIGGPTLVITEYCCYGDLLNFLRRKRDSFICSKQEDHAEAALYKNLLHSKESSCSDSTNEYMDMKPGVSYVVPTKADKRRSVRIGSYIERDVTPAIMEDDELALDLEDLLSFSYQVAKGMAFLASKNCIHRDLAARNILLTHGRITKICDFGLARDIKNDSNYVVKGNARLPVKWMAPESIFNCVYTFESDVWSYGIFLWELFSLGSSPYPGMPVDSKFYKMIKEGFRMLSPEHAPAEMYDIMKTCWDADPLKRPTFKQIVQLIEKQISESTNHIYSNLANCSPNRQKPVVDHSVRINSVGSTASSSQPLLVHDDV

Turning to `Cc1c(F)cncc1-c1cc2cnc(NC(=O)C3CC3)cc2n(C)c1=O` [Compound 2, N-[3-(5-fluoro-4-methylpyridin-3-yl)-1-methyl-2-oxo-1,6-naphthyridin-7-yl]cyclopropanecarboxamide], the IC50 was 1.2 nM at ABL1 (H396P); below 0.51 nM at ABL1 (V299L); 1.5 nM at ABL1 (M351T); 0.61 nM on ABL1 (E255V); 4400 nM on ABL1 (T315I); 1.2 nM at ABL1 (Q252H). Besides, the half-inhibitory concentration (IC50) at ABL1 (E255K) was 2 nM; at ABL1 (F317L), 17 nM; at ABL1 (Y253F) it was below 0.51 nM; at ABL1 it was 0.61 nM; in the assay on HepG2 (NRAS Q61L) it was 334 nM. Moreover, 0.1 µM produced 17% inhibition on c-KIT.
In the case of `Cc1c(F)cncc1-c1cc2cnc(NC(=O)[C@@H]3C[C@@H]3F)cc2n(C)c1=O` [Compound 28, (1S,2S)-2-fluoro-N-[3-(5-fluoro-4-methylpyridin-3-yl)-1-methyl-2-oxo-1,6-naphthyridin-7-yl]cyclopropane-1-carboxamide], the IC50 on ABL1 (H396P) was 1.4 nM; at ABL1 (V299L), 0.19 nM; at ABL1 (M351T), 4.5 nM; on ABL1 (E255V), 1.4 nM; at ABL1 (T315I) it was above 500 nM; at ABL1 (Q252H), 1.7 nM. In addition, the IC50 was 3.4 nM on ABL1 (E255K); 107 nM on ABL1 (F317L); 0.53 nM at ABL1 (Y253F); 1.2 nM at ABL1; 496 nM with HepG2 (NRAS Q61L). The same compound yielded an inhibition at 0.1 µM at c-KIT of 7.3%.
